Patent publication US20040191168A1, “Tumor cell killing by cell cycle checkpoint abrogation combined with Inhibition of the classical mitogen activated protein (map) kinase pathway” (priority 2000, published 2004)
Several values for one entry are separate records, joined by “and”; a condition that tells them apart may be missing. Equal values may be shown once.

What was measured:
Assay type in all cases: cell-based, human
[1] = test system: U937 cells; test: Morphological assessment of apoptosis (Wright-Giemsa cytospins) in U937 cells; details: U937 cells; for apoptosis (cell death): UCN-01 150 nM, FIG. 1A
Experimental: Experimental Format. All of the experiments were performed using logarithmically growing cells (3-5×10^5 cells/ml). Cell suspensions were placed in sterile 25 cm^2 T-flasks (Corning, Corning, N.Y.) and incubated with MEK or PKC inhibitors for 30 min at 37° C. At the end of this period, UCN-01 (or in some cases, caffeine) was added to the suspension, and the flasks were placed in 37° C./5% CO2 incubator at various intervals, generally 18 h. In some studies, the p38 MAP kinase inhibitor SB203580 was added concurrently with MEK inhibitors. After drug treatment, cells were harvested and subjected to further analysis as described below.
Analysis of Apoptosis. […] For each condition, 5 to 10 randomly selected fields/condition were evaluated, encompassing at least 500 cells (Vrana and Grant, 2001). To confirm the results of morphological analysis, in some cases cells were also evaluated by TUNEL staining (Gorczyca et al., 1993) and assessment of oligonucleosomal DNA fragmentation of total DNA. DNA fragmentation was analyzed by 1.8% agarose gel electrophoresis as described previously (Jarvis et al., 1994). For TUNEL staining, cytocentrifuge preparations were obtained and fixed with 4% formaldehyde. The slides were treated with acetic acid/ethanol (1:2), stained with terminal transferase reaction mixture containing terminal transferase reaction buffer, 0.25 units/ ml terminal transferase, 2.5 mM CoCl2, and 2 pmol fluorescein-12-dUTP (Boehringer Mannheim, Indianapolis, Ind.), and visualized using fluorescence microscopy.

[2] = test system: U937 cells; test: Soft agar clonogenic assay in U937 cells; details: agents alone, UCN-01 150 nM, PD184352 10 μM, 18 h
Experimental: Clonogenic Assay and Cell Proliferation Assays. Colony formation after drug treatment was evaluated using a soft agar cloning assay as described previously (Blasina et al, 1999). Briefly, cells were washed three times with serum-free RPMI medium. Subsequently, 500 cells/well were mixed with RPMI medium con-taining 20% FBS and 0.3% agar and plated on 12-well plates (three wells/ condition). The plates were then transferred to a 37° C./5% CO2, fully humid-ified incubator. After 10 days of incubation, colonies, consisting of groups 5 of 50 cells, were scored using an Olympus Model CK inverted microscope, and colony formation for each condition was calculated in relation to values obtained for untreated control cells. For cell viability assays, CellTiter 96 AQueous One Solution (Promega, Madison, Wis.) was used according to the manufacturer's instructions, and the absorbance at 490 nm was recorded using a 96-well plate reader (Molecular Devices, Sunnyvale, Calif.).

[3] = test system: U937 cells; test: Cell cycle analysis (propidium iodide flow cytometry) in U937 cells; details: 18 h, UCN-01 150 nM, PD184352 10 μM, FIG. 3A
Experimental: (§1) Cell Cycle Analysis and S-phase Content. Cells (2×10^6) were pelleted at 4° C., resuspended, fixed at 4° C. with 67% ethanol overnight, and treated on ice with a propidium iodide solution containing 3.8 mM Na citrate, 0.5 mg/ml RNase A (Sigma Chemical Co.), and 0.01 mg/ml propidium iodide (Sigma Chemical Co.) for 3 h. Cell cycle analysis was performed by flow cytometry using Verity Winlist software (Topsham, Me.). Incorporation of BrdUrd was monitored to evaluate S-phase content. For each condition, 2 3 10 6 cells (cell density 5 5 3 10 5 /ml) were incubated with […] BrdUrd for 30 min at 37° C. After washing twice with 1% BSA/PBS, the cells were resuspended in 70% ethanol and fixed for 30 min on ice. The BrdUrd-labeled cells were denatured and nuclei released by incubation with 2 N HCl/0.5% Triton X-100 for 30 min at room temperature. After centrifugation, the pellet was resuspended in 0.1 M […] (pH 8.5) to neutralize the acid. […] After washing once with 0.5% Tween 20/1% BSA/PBS, the cells were resuspended in PBS containing […] propiditun iodide and analyzed by flow cytometry. The percentage of S-phase cells was determined by measuring BrdUrd FITC-positive part in a dot plot of FL-3 (red fluorescence) against FL-1 (green fluorescence).

[4] = test system: U937 cells; test: S-phase content by BrdUrd incorporation in U937 cells; details: 12 and 18 h, UCN-01 150 nM, PD184352 10 μM, FIG. 3B
Experimental: as §1

[5] = test system: MAPK/ERK; test: p42 MAPK immune complex kinase assay in carcinoma cells; details: MCF7, MDA-MB-231, T47D and DU145 cells; UCN-01 150 nM; MEK1/2 inhibitors (PD98059 25 μM, PD184352 10 μM, U0126 5 μM) given with UCN-01
Experimental: Immunoprecipitations from Lysates. Fifty microliters of Protein A agarose (Ag) slurry (25 μl bead volume) was washed twice with 1 ml PBS containing 0.1% (v/v) Tween 20, and resuspended in 0.1 ml of the same buffer. Antibodies (2 μg, 20 μl), serum (20 μl) were added to each tube and incubated (3 h, 4° C.). For pre-conjugated antibodies,10 μl of slurry (4 μg antibody) was used. Clarified equal aliquots of lysates (0.25 ml, 100 μg total protein) were mixed with Ag-conjugated antibodies in duplicate using gentle agitation (2.5 h, 4° C.). Ag-antibody-antigen complexes were recovered by centrifugation, the supernatant discarded, and washed (10 min) sequentially with 0.5 ml buffer A (twice), PBS and buffer B [25 mM Hepes, pH 7.4, 0.1 mM Na3VO4].
Assay of p42^MAPK activity. Immunoprecipitates were incubated (final volume 50 μl ) with 50 μl of buffer B containing 0.2 mM [γ-^32P]ATP (5000 cpm/pmol), 1 μM Microcystin-LR, 0.5 mg/ml myelin basic protein NP), which initiated reactions at time=0. After 20 min., 40 μl of the reaction mixtures were spotted onto a 2 cm circle of P81 paper (Whatman, Maidstone, England) and immediately placed into 180 mM phosphoric acid. Papers were washed four times (10 min each) with phosphoric acid, and once with acetone, and ^32P-incorporation into MBP was quantified by liquid scintillation spectroscopy.

SMILES: O=C(NOCC1CC1)c1ccc(F)c(F)c1Nc1ccc(I)cc1Cl [PD184352]
- Apoptotic cells (%) ([1]; 18 h, PD184352 10 μM, GFX 1 μM, safingol 2 μM, mean ± SD): 1.8 ± 0.1% and 2.1 ± 0.1%
- apoptosis (cell death) ([1]; 18 h, PD184352 10 μM): 10%
- reduction of clonogenic survival (colony formation) [2]: 40%
- cell cycle distribution [3]: little effect on the cell cycle distribution
- number of BrdUrd-positive (S-phase) cells [4]: modest decline
- MAPK/ERK activity (immune complex kinase assay) [5]: opposed

SMILES: CN[C@@H]1C[C@H]2O[C@@](C)([C@@H]1OC)n1c3ccccc3c3c4c(c5c6ccccc6n2c5c31)C(=O)N[C@H]4O [UCN-01, 7-hydroxystaurosporine]
- apoptosis (cell death) ([1]; 18 h, PD184352 10 μM): 10%
- percentage of apoptotic cells ([1]; 24 hr, 100 nM UCN-01, 10 μM LY294002, FIG. 14): about 20%
- reduction of clonogenic survival (colony formation) [2]: very modest effect
- cell cycle distribution [3]: primarily depleted the G2 M population
- number of BrdUrd-positive (S-phase) cells [4]: no effect
- MAPK/ERK activity (immune complex kinase assay) [5]: activation of MAPK/ERK was observed
